Results: patent publication US20240398756A1, “DRUG FOR REDUCING BLOOD GLUCOSE AND/OR TREATING DIABETIC COMPLICATIONS” (SICHUAN UNIVERSITY, priority 2022, published 2024)
Where a name gives a salt, the structure may show the parent alone.

Key:
C57BL/KsJ db/db mice [1] = assay: Blood glucose in db/db type 2 diabetes mice (Embodiment 4); format: in vivo; conditions: gavage; for reduction of blood glucose contents: 1 month, nanoparticles 100 mg/kg once every 3 days, LA monomer 100 mg/kg and metformin 120 mg/kg once a day, relative to model-normal control difference
Description: A total of 24 C57BL/KsJ db/db mice were randomly divided into 4 groups according to body weight and blood glucose, with 6 mice in each group. […] There were 6 littermate w/w male mice of the same week age as the solvent control group. […] After administration of a single dose, the blood glucose changes of mice were continuously monitored for 3 days. During the 1-month treatment cycle, the blood glucose changes of the mice were detected every 3 days. On the 30th day, 2 h after the end of administration, the blood glucose of mice was measured, and the percentage of blood glucose reduced by the drug was calculated based on the difference between the blood glucose of the model and the normal control group. The mice were killed by enucleation and bloodletting, serum samples were collected by centrifugation at room temperature, the serum insulin content was detected by mouse insulin ELISA detection kit, and the insulin resistance index was calculated, and the percentage of the drug to reduce the serum insulin content and insulin resistance index was calculated based on the difference between the model and the normal control group.
The results of the quantitative experiment were expressed as mean±variance (x±s). SPSS version19.0 Statistical Software (Chicago, IL, USA) was used to compare the differences between groups using one-way analysis of variance. When the difference was significant (P<0.05), the Turkey post hoc method was used for pairwise comparison, and when P<0.05, the difference was considered statistically significant.

C57BL/KsJ db/db mice [2] = assay: Serum insulin content and insulin resistance index in db/db diabetic mice; format: in vivo; conditions: gavage, end of 1 month treatment, nanoparticles 100 mg/kg every 3 days, LA monomer 100 mg/kg and metformin 120 mg/kg daily
From the text: 8-week male C57BL/KsJ db/db mice, SPF grade, provided by Jiangsu GemPharmatech Co. Ltd., Changzhou Branch, certificate number: 202012449, with an initial weight of 44±2 g, underwent adaptive feeding for one week. A total of 24 C57BL/KsJ db/db mice were randomly divided into 4 groups according to body weight and blood glucose, with 6 mice in each group. […] There were 6 littermate w/w male mice of the same week age as the solvent control group. […] After administration of a single dose, the blood glucose changes of mice were continuously monitored for 3 days. During the 1-month treatment cycle, the blood glucose changes of the mice were detected every 3 days. […] The mice were killed by enucleation and bloodletting, serum samples were collected by centrifugation at room temperature, the serum insulin content was detected by mouse insulin ELISA detection kit, and the insulin resistance index was calculated, and the percentage of the drug to reduce the serum insulin content and insulin resistance index was calculated based on the difference between the model and the normal control group. The results of the quantitative experiment were expressed as mean±variance (x±s). SPSS version19.0 Statistical Software (Chicago, IL, USA) was used to compare the differences between groups using one-way analysis of variance. When the difference was significant (P<0.05), the Turkey post hoc method was used for pairwise comparison, and when P<0.05, the difference was considered statistically significant.

C57BL/KsJ db/db mice [3] = assay: Na+-K+-ATPase activity in red blood cells and sciatic nerve; format: in vivo; conditions: 50 mg/kg i.p. three times a week, 8 weeks
Description: (§1) Eighteen 16-week male C57BL/KsJ db/db mice, SPF grade, provided by Jiangsu GemPharmatech Co. Ltd., Changzhou Branch. […] The littermate w/w male mice of the same age were selected as the control group. The heat pain threshold was measured in all mice before administration to determine DPN symptoms. […] The control group and the db/db model group were intraperitoneally injected with an equal volume of saline. During the treatment period, blood glucose changes in mice were monitored every three days to determine the hypoglycemic effect of the drug. At the end of the 8th week, the heat pain threshold was detected. Mice were sacrificed to detect related factors through detection kits.
After 8 weeks treatment, all mice were sacrificed and the sciatic nerve was isolated. In order to determine the activity of Na^+—K^+-ATPase in red blood cells and sciatic nerve of mice, 10 μL whole blood was collected and added into 240 μL distilled water for mixing, and the activity of Na^+—K^+-ATPase was determined immediately. The sciatic nerve tissue of mice was collected. First, the sciatic nerve was cut into fragments (100 mg: 1800 μL) with small scissors in normal saline and homogenized with Beed Ruptor 24 Elite. Then, the homogenate was centrifuged at 4° C. and 3500 rpm for 15 min, and the supernatant was collected for use.

C57BL/KsJ db/db mice [4] = assay: Kidney tissue pathology (HE, PAS, TEM) in diabetic nephropathy mice; format: in vivo; conditions: 30 mg/kg i.p. once a day, four weeks
Description: (§2) 10-week male C57BL/KsJ db/db mice, SPF grade, provided by Jiangsu GemPharmatech Co. Ltd., Changzhou Branch, certificate number: 202012449, with an initial weight of 44±2 g, underwent adaptive feeding for two weeks. […] There were 6 littermate w/w male mice of the same week age as the solvent control group. Different doses were given by intraperitoneal injection at 10 mL/kg volume once a day for four weeks, respectively, and equal volumes of normal saline were given by intraperitoneal injection in the control and model groups. During the treatment cycle, the blood glucose changes in mice were detected every three days, and the percentages of blood glucose reduced by the drugs were calculated based on the difference between the blood glucose of the model and the normal control group, so as to clarify the hypoglycemic effect of the drugs.

C57BL/KsJ db/db mice [5] = assay: TNF-α, IL-1β and IL-6 contents in sciatic nerve; format: in vivo; conditions: 50 mg/kg i.p. three times a week, 8 weeks
Description: as §1
(§3) At the end of the experiment, mice were sacrificed and sciatic nerve cells were isolated. In order to determine the contents of MDA, GSH, SOD, TNF-α, IL-6 and IL-1β in the sciatic nerve, the sciatic nerve was first cut into fragments (100 mg: 1800 μL) with small scissors in normal saline and homogenized with Beed Ruptor 24 Elite. Then, the homogenate was centrifuged at 4° C. and 3500 rpm for 15 min, and the supernatant was collected for use. Then, commercial kits were used to determine the activity of SOD and the contents of MDA, GSH, TNF-α, IL-6 and IL-1β in sciatic nerve homogenate.

[6] = intravenous injection, human body; cited from earlier work
C57BL/KsJ db/db mice [7] = assay: MDA content and SOD activity in kidney tissues; format: in vivo; conditions: 30 mg/kg i.p. once a day, 4 weeks
Description: as §2

C57BL/KsJ db/db mice [8] = assay: Transcript levels of TNF-α, IL-1β and IL-6 genes in kidney tissues; format: in vivo; conditions: 30 mg/kg i.p. once a day, 4 weeks
Description: as §2

C57BL/KsJ db/db mice [9] = assay: Blood glucose in db/db diabetic nephropathy mice (Embodiment 6); format: in vivo; conditions: 30 mg/kg intraperitoneal once a day, four weeks
Description: as §2, with “drugs. […] The results of the quantitative experiment were expressed as mean±variance (x±s). SPSS version19.0 Statistical Software (Chicago, IL, USA) was used to compare the differences between groups using one-way analysis of variance. When the difference was significant (P<0.05), the Turkey post hoc method was used for pairwise comparison, and when P<0.05, the difference was considered statistically significant.” for “drugs.”

C57BL/KsJ db/db mice [10] = assay: Serum CRE, BUN and UACR in diabetic nephropathy mice; format: in vivo; conditions: 30 mg/kg i.p. once a day, four weeks
Description: as §2

C57BL/KsJ db/db mice [11] = assay: Blood glucose in db/db diabetic peripheral neuropathy mice (Embodiment 8); format: in vivo; conditions: 50 mg/kg i.p. three times a week, 8 weeks
Description: as §1

C57BL/KsJ db/db mice [12] = assay: SOD activity and MDA, GSH contents in sciatic nerve; format: in vivo; conditions: 50 mg/kg i.p. three times a week, 8 weeks
Description: as §1, §3

With `CN(C)C(=N)N=C(N)N` [metformin, metformin hydrochloride] the “reduction of blood glucose contents” value (C57BL/KsJ db/db mice [1]) was 50.28%, the “duration of hypoglycemic effect after a single dose” value (C57BL/KsJ db/db mice [1]; single dose, nanoparticles 100 mg/kg, metformin 120 mg/kg) was ≤ 24 h and the “decrease of insulin resistance index” value (C57BL/KsJ db/db mice [2]) was 53.68%. For the same compound, the “decrease of serum insulin content” value (C57BL/KsJ db/db mice [2]) was 34.69%.

In the case of `O=C(O)CCCCC1CCSS1` (centres unmarked) [LA monomer, lipoic acid], the “increase of Na+-K+-ATPase activity in sciatic nerve vs db/db mice” value (C57BL/KsJ db/db mice [3]) is reported as 120%, the “increase of Na+-K+-ATPase activity of red blood cells vs db/db mice” value (C57BL/KsJ db/db mice [3]) is reported as 137% and the “decrease of basement membrane thickness vs db/db model group” value (C57BL/KsJ db/db mice [4]) is reported as 6.57%. The “increase of number of foot processes vs db/db model group” value (C57BL/KsJ db/db mice [4]) was 10.14%, the “shrinkage of glomeruli vs db/db model group” value (C57BL/KsJ db/db mice [4]) was 25.50% and the “decrease of IL-1β level in sciatic nerve tissue vs db/db mice” value (C57BL/KsJ db/db mice [5]) was 27.46%. For the same compound, the “decrease of IL-6 level in sciatic nerve tissue vs db/db mice” value (C57BL/KsJ db/db mice [5]) was 38.42%, the “decrease of TNF-α level in sciatic nerve tissue vs db/db mice” value (C57BL/KsJ db/db mice [5]) was 34.42% and the “fraction passing through the glomerulus into the renal tubules and excreted in the urine” value [6] was 80-90%. For the same compound, the “increase of SOD activity in kidney tissues” value (C57BL/KsJ db/db mice [7]) was 55%, the “reduction of MDA content in kidney tissues” value (C57BL/KsJ db/db mice [7]) was 9.8% and the “reduction of IL-1β transcript level in kidney” value (C57BL/KsJ db/db mice [8]) was 18.18%. For the same compound, the “reduction of IL-6 transcript level in kidney” value (C57BL/KsJ db/db mice [8]) was 23.33%, the “reduction of TNF-α transcript level in kidney” value (C57BL/KsJ db/db mice [8]) was 22.5% and the “reduction of blood glucose content” value (C57BL/KsJ db/db mice [9]) was “no hypoglycemic effect”. For the same compound, the “decrease of BUN content vs db/db model group” value (C57BL/KsJ db/db mice [10]) was 25.45%, the “decrease of UACR level vs db/db model group” value (C57BL/KsJ db/db mice [10]) was 24.75% and the “decrease of serum CRE vs db/db model group” value (C57BL/KsJ db/db mice [10]) was 21.05%. The “reduction of blood glucose contents” value (C57BL/KsJ db/db mice [1]) was “no hypoglycemic effect”, the “blood glucose levels versus model group after a single dose” value (C57BL/KsJ db/db mice [1]; single dose 100 mg/kg, monitored 3 days) was “no significant difference” and the “hypoglycemic effect (in words)” value (C57BL/KsJ db/db mice [11]) was “no hypoglycemic effect”. For the same compound, the “decrease of MDA content in sciatic nerve” value (C57BL/KsJ db/db mice [12]) was 30.79%, the “increase of GSH content in sciatic nerve” value (C57BL/KsJ db/db mice [12]) was 10.79 and the “increase of SOD activity in sciatic nerve” value (C57BL/KsJ db/db mice [12]) was 15.76%. For the same compound, the “decrease of serum insulin content” value (C57BL/KsJ db/db mice [2]) was “no significant difference”.
